Data reported in patent US5037830A, “Novel thiouracyl derivatives, pharmaceutical compositions containing them and process for preparing same” (Richter Gedeon Vegyeszeti Gyar RT, priority 1989, dated 1991).

Experiments:
Acute toxicity, mouse = details: in vivo
Protocol: These investigations were carried out in OFI mice and OFA rats after starving for 24 hours. Ten animals were used for each dose. The number of doses was 3 or 4.

[1] = system: histamine-induced gastric acid secretion; test: Inhibition of the histamine-induced gastric acid secretion in dogs; format: in vivo, Beagle dogs
Protocol: (§1) After being starved for 24 hours, Beagle dogs of both sexes weighing 6.3 to 11.9 kg were anaesthetized with sodium pentobarbital (30 mg/kg i.v.). The trachea and femoral veins on both sides were cannulated. After laparotomy the pylorus was ligated, a glass cannula was placed into the anterior side of the stomach and fixed by a purse string suture to the stomach wall, abdominal wall and abdominal skin. A rubber probe was introduced to the stomach through the mouth. The animal thus prepared was put onto a Pavlov's frame. The steady sleep was ensured by the infusion of sodium pentobarbital (5 mg/kg/hour). The stomach was washed with lukewarm water and emptied. The secretion-inducing agents (histamine, pentagastrin, carbachol) were administered in a volume of 12 ml/hour for 2 hours in the following doses:
(§2) After 2 hours the infusion was stopped, the volume of the gastric juice produced was measured and its acid content was determined by titration with 0.1N NaOH by using Topfer's indicator. The compound of Example 1 was administered in a 25 mg/kg i.p. dose to the animals by 30 minutes before starting the infusion.

[2] = system: carbachol-induced gastric acid secretion; test: Inhibition of the carbachol-induced gastric acid secretion in dogs; format: in vivo, Beagle dogs
Protocol: as §1, §2

[3] = system: pentagastrin-induced gastric acid secretion; test: Inhibition of the pentagastrin-induced gastric acid secretion in dogs; format: in vivo, Beagle dogs
Protocol: as §1, §2

[4] = system: pentagastrin-induced gastric acid secretion; test: Inhibition of the pentagastrin-induced gastric acid secretion in rats; format: in vivo, male OFA rats; details: for Gastric acid, change / Gastric juice, change: vs control; for Gastric juice, treated: pentagastrin 0.05 mg/kg/hour; for ED50: Rattus norvegicus, ip, pentagastrin-induced, dose column i.p.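 As to Gastric acid, treated: dosed 30 min before a 5 hour experiment.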
Protocol: After being starved for 24 hours, male OFA rats weighing 250 to 320 g were anaestethized by 40% urethane (0.5 ml/100 g), then the trachea and jugular vein were cannulated (10 animals were used for each dose). A glass cannula was inserted to the stomach from the direction of the pylorus. The stomach was washed with lukewarm water and then purified by air blown through. The gastric acid secretion was induced by an infusion of histamine (5 mg/kg/hour), or pentagastrin (0.05 mg/kg/hour) or carbachol (0.01 mg/kg/hour), respectively. […]

[5] = po, female mouse, precision restricted by solubility
[6] = po, male mouse, precision restricted by solubility
[7] = 25 mg/kg i.p. + Histamine 0.1 mg/kg/hr
[8] = 25 mg/kg i.p. + Carbachol 0.02 mg/kg/hr
[9] = 25 mg/kg i.p. + Pentagastrin 0.03 mg/kg/hr

SMILES: Cc1cc(=O)[nH]c(SCc2ccccc2N(C)C)n1 [Example 1, 2-(2-dimethylaminobenzyl)thio-6-methyl-4(3H)-pyrimidinone]
- LD50 (Acute toxicity, mouse; ip, female mouse): 365 mg/kg
- LD50 (Acute toxicity, mouse; ip, male mouse): 360 mg/kg
- LD50 (Acute toxicity, mouse; [5]): > 1000 mg/kg
- LD50 (Acute toxicity, mouse; [6]): > 1000 mg/kg
- Gastric acid volume [1, 7]: 3.90 ml/kg/2 hr
- Gastric acid, change [1, 7]: -75%
- Gastric juice volume [1, 7]: 3.85 ml/kg/2 hr
- Gastric juice, change [1, 7]: -69%
- inhibition of gastric acid secretion, in words ([1]; dogs compared with rats, histamine): with the same efficiency in dogs as in rats
- Gastric acid volume [2, 8]: 1.84 ± 0.74 ml/kg/2 hr
- Gastric acid, change [2, 8]: -80%
- Gastric juice volume [2, 8]: 2.55 ± 0.79 ml/kg/2 hr
- Gastric juice, change [2, 8]: -69%
- inhibition of gastric acid secretion, in words ([2]; dogs compared with rats, carbachol): with the same efficiency in dogs as in rats
- Gastric acid volume [3, 9]: 1.43 ± 0.77 ml/kg/2 hr
- Gastric acid, change [3, 9]: -76%
- Gastric juice volume [3, 9]: 2.90 ± 0.48 ml/kg/2 hr
- Gastric juice, change [3, 9]: -54%
- inhibition of gastric acid secretion, in words ([3]; dogs compared with rats, pentagastrin): with the same efficiency in dogs as in rats
- Gastric acid, treated ([4]; 6.25 mg/kg i.p.): 1.79 mL
- Gastric acid, change ([4]; 6.25 mg/kg i.p.): -34%
- Gastric juice, change ([4]; 6.25 mg/kg i.p.): -31%
- Gastric juice, treated ([4]; 6.25 mg/kg i.p.): 1.26 mL
- Gastric acid, treated ([4]; 12.5 mg/kg i.p.): 1.21 mL
- Gastric acid, change ([4]; 12.5 mg/kg i.p.): -55%
- Gastric juice, change ([4]; 12.5 mg/kg i.p.): -51%
- Gastric juice, treated ([4]; 12.5 mg/kg i.p.): 0.90 mL
- Gastric acid, treated ([4]; 25 mg/kg i.p.): 0.51 mL
- Gastric acid, change ([4]; 25 mg/kg i.p.): -81%
- Gastric juice, change ([4]; 25 mg/kg i.p.): -78%
- Gastric juice, treated ([4]; 25 mg/kg i.p.): 0.41 mL
- ED50 [4]: 9.5 mg/kg

SMILES: CN(C)c1ccccc1C[S+]([O-])c1nc2ccccc2[nH]1 (stereo not shown) [NC-1300, 2-[(2-dimethylaminobenzyl)sulfinyl]-1H-benzimidazole, reference compound]
- LD50 (Acute toxicity, mouse; ip, female mouse): 415 mg/kg
- LD50 (Acute toxicity, mouse; ip, male mouse): 410 mg/kg
- LD50 (Acute toxicity, mouse; [5]): > 1000 mg/kg
- LD50 (Acute toxicity, mouse; [6]): > 1000 mg/kg
- Gastric acid, treated ([4]; 5 mg/kg i.p.): 1.25 mL
- Gastric acid, change ([4]; 5 mg/kg i.p.): -23%
- Gastric juice, change ([4]; 5 mg/kg i.p.): -26%
- Gastric juice, treated ([4]; 5 mg/kg i.p.): 0.92 mL
- Gastric acid, treated ([4]; 10 mg/kg i.p.): 0.47 mL
- Gastric acid, change ([4]; 10 mg/kg i.p.): -74%
- Gastric juice, change ([4]; 10 mg/kg i.p.): -70%
- Gastric juice, treated ([4]; 10 mg/kg i.p.): 0.35 mL
- Gastric acid, treated ([4]; 20 mg/kg i.p.): 0.32 mL
- Gastric acid, change ([4]; 20 mg/kg i.p.): -82%
- Gastric juice, change ([4]; 20 mg/kg i.p.): -77%
- Gastric juice, treated ([4]; 20 mg/kg i.p.): 0.27 mL
- ED50 [4]: 7.9 mg/kg
